Several values for one entry are separate records, joined by “and”; a condition that tells them apart may be missing. Equal values may be shown once. Read-outs that look alike come from different tables or passages of the source. Blank lines part the entries; values can stand above or below the compound they belong to.
Key:
HT-29 cells [1] = assay: Viability / proliferation assay in HT-29 cells (cell counting); conditions: for Residual viability: remaining surviving cells
Text: We then evaluated the antiproliferative potential of the compounds by carrying out viability assays in HT-29, a CRC-derived cell line selected as it expresses substantial amounts of PPARγ1 with respect to the α and β/δ subtypes.
After treatment, the cells were washed with PBS, trypsinized and collected in culture medium. Cells were counted by means of a Burker’s hemocytometer and by automated cell counter (Roche Applied, Penzberg, Germany)[60].
Proliferation assay carried out on HT-29 cells treated or not with the indicated compounds at different concentrations ranging from 1 to 10 µM for 48 hs. HT-29 cells exposed or not to these compounds were harvested, washed with PBS, trypsinized and collected in culture medium. Cell counting was performed by means of a Burker’s hemocytometer. Three counts for each well were made and the mean value and the standard deviation were calculated.

PPARγ1 = molecular target: T1, PPARγ1 (Homo sapiens, UniProt P37231); assay: PPRE-Luciferase reporter transactivation in HEK293 cells expressing PPARγ1; format: cell-based; conditions: for Efficacy: PPARγ transactivation with respect to the full agonist RGZ taken as 100%; for EC50: PPARγ transactivation, PPRE-Luc reporter, HEK293 expressing PPARγ1, 24 hs treatment
T1 construct: a fixed and higher amount of an exogenous, full length PPARγ1; expressed in transfected cells
T1 sequence (P37231 1-477 isoform P37231-2): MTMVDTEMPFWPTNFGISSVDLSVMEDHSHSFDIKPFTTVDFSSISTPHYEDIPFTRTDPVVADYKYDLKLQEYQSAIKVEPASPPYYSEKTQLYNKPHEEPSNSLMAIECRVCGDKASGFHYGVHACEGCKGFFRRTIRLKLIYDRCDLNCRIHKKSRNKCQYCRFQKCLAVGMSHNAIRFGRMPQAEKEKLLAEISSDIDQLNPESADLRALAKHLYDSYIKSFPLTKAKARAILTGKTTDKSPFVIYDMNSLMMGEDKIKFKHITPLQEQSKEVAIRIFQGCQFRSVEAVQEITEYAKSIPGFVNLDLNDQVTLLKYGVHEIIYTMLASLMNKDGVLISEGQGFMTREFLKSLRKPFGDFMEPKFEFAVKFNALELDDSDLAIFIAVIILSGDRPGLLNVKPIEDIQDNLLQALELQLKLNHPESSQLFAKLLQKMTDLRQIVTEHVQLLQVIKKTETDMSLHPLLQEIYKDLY
Method: These cells were selected as a model system because they express low levels of the endogenous PPAR subtypes and a fixed and higher amount of an exogenous, full length PPARγ1; the differences in luciferase activity can, thus, be referred to PPARγ1 and to the different ligands used. Twenty-four hours after transfection, cells were treated for additional 24 hs with increasing doses of each compound (Table 2).
HEK293 cells that stably express an exogenous Flag-tagged PPARγ1 from a transfected PCDNA-3 vector carrying a complete PPARγ cDNA were used for transfection experiments. PPRE-Luc plasmid contains a luciferase reporter gene whose transcription is driven by the herpes simplex thymidine kinase (TK) promoter including three copies of the PPRE designed on the sequence of Acyl-CoA oxidase gene. […] The day before transfection, HEK293 stably expressing FLAG-PPARγ1 were plated in 12-well plates to reach 70% confluence. After 24 hs, growth medium was removed and substitute with OPTI-MEM, in absence of serum and antibiotics, and cells were transfected with the luciferase reporter gene (PPRE-Luc) using lipofectamine 2000 reagent as described. […] Transfection assays were performed in triplicate and the resulting transcriptional activities measured by luciferase assay. The values were normalized by β-galactosidase assay and the average value for each triplicate was calculated.

β-catenin/TCF pathway = assay: Top-FLASH reporter luciferase assay in LiCl-induced HEK-293 cells; format: cell-based; conditions: HEK-293, Top-FLASH, 20 mM LiCl plus 1 µM compound, 24 hs, relative to LiCl alone
Method: (§1) Proliferating HT-29 cells were treated for 48 hs with 10 µM of the indicated compounds. Specific antibodies against cyclin D1 (A), c-Myc (B), β-catenin (C) and PPARγ (D) respectively, were used in Western blotting analysis. An anti-β-actin antibody was used as a control for protein loading. The graphs of (A) and (B) represent the means ± SD of three independent experiments. **p ≤ 0.01, ***p ≤ 0.005 compared to the control. The bar graphs of (C,D) are the means ± SD of three independent experiments. *p ≤ 0.05 compared to the control. […] Luciferase activity is reported as fold induction after normalization to β-galactosidase activity used as control of transfection efficiency. The graph represents the mean ± SD of two independent experiments performed in triplicate. *p ≤ 0.05 compared to LiCl exposure.
To definitely confirm that (R,S)-3 and (S)-3 negatively affect c-Myc and cyclin D1 protein levels through down-regulation of their own gene transcription, we performed the TOP-flash reporter luciferase assay in LiCl-induced HEK-293 cells. […]
The Top-FLASH reporter plasmid containing three copies of TCF binding sites was transiently transfected into HEK293 cells with Lipofectamine 2000 (Invitrogen, Carlsbad, CA, USA) in 24-well plates. […] Luciferase activity was measured after 24 h of compounds treatment and normalized to β-galactosidase. […]

caspase 3 = assay: Western blotting of caspase 3 in HT-29 cells; format: cell-based, human; conditions: 10 µM, 48 hs
Method: (§2) (B) Early (Ann+/PI−) and late (Ann+/PI+) apoptotic cell populations were evaluated and reported in the graphic representation. The bar graphs are the means ± SD of three independent experiments. *p ≤ 0.05, **p ≤ 0.01, ***p ≤ 0.005 compared to the control. […] An anti-β-actin antibody was used as a control for protein loading. Significance is indicated as *p ≤ 0.05 compared to only vehicle. […] It is listed because a value is printed with its label.
(§3) Total extracts from treated and untreated cells were obtained by lysis in Ripa buffer (150 mM NaCl, 50 mM Tris-HCl, pH 7.6, 10 mM EDTA, 1% NP-40) containing also a protease inhibitors cocktail and then centrifugated at 17,000 RCF for 10 min, at 4 °C. Total proteins in the supernatant were quantified and 80 μg of each sample were loaded on SDS-PAGE. Western blotting assays were carried out as previously reported.

β-catenin = assay: Western blotting of β-catenin in HT-29 cells; format: cell-based, human; conditions: 10 µM, 48 hs
Method: as §1
(§4) Indeed, cyclin D1 and c-Myc are target genes[38],[39] and, for these reasons, we evaluated c-Myc levels in untreated and treated HT-29 cells. […] Along this reasoning, we investigated β-catenin levels in the same experimental conditions. […]
as §3, with “Western blotting assays were carried out as previously reported.” left out

c-Myc = assay: Western blotting of c-Myc in HT-29 cells; format: cell-based, human; conditions: 10 µM, 48 hs
Method: as §1, §4
as §3, with “Western blotting assays were carried out as previously reported.” left out

cyclin D1 = assay: Western blotting of cyclin D1 in HT-29 cells; format: cell-based, human; conditions: 10 µM, 48 hs
Method: (§5) To better characterize the growth inhibition elicited by (R,S)-3, (S)-3 and (R,S)-7, we examined changes in the expression of proteins involved in cell cycle control (Figs 1B and 2A). […] The results paralleled those of the corresponding proteins and all together correlated with the flow cytometric data obtained in the same experimental conditions as reported in Fig. 1.
as §1, with “The graph represents the mean ± SD of two independent experiments performed in triplicate. *p ≤ 0.05 compared to LiCl exposure.” left out
as §3, with “Western blotting assays were carried out as previously reported.” left out

p21^waf1/cip1 [2] = assay: Western blotting of p21waf1/cip1 in parental RKO cells (no endogenous PPARG); format: cell-based, human; conditions: 10 µM, 48 hs
Text: (§6) RKO cells were taken as control for assessing possible effects due to other PPAR receptors expressed at low levels in this cell or to PPARγ-independent effects elicited by GW9662, as reported.
(§7) Figure 4 PPARγ-dependent antiproliferative effect in CRC-derived RKO cells. Western blotting analysis of p21^waf1/cip1 expression in total protein extracts from CRC-derived RKO cells (A) and its derived clone overexpressing an ectopic PPARγ1 (B) using an anti-p21^waf1/cip1 antibody. An anti-β-actin antibody was used as a control for protein loading. The bar graphs represent the mean ± SD of […] of at least 3 independent experiments. *p ≤ 0.05, **p ≤ 0.01 compared to the control.
as §3

HT-29 cells [3] = assay: Cell cycle analysis by flow cytometry (propidium iodide) in HT-29 cells; format: cell-based, human; conditions: 1 to 25 µM, 48 hs, FACS
Method: We then investigated the cell cycle changes underlying the growth inhibition caused by (R,S)-3, (S)-3 and (R,S)-7 treatment. To this goal, HT-29 cells were cultured in proliferating medium for 24 hs and exposed for additional 48 hs to a medium containing different concentrations of the three compounds.
(§8) Data are means ± SD of two independent experiments. *p ≤ 0.05, **p ≤ 0.01 compared to the control. (B) Proliferating HT-29 cells were treated or not for 48 hs with 10 µM of the indicated compounds. Protein extracts were prepared and assessed for p21^waf1/cip1 expression in Western blotting analysis. β-Actin was used for protein load normalization. The bar graphs are the mean ± SD of three independent experiments. **p ≤ 0.01 compared to the control.
(§9) HT-29 cells were plated at similar confluency and synchronized by a 48 h serum deprivation in 0.1% FBS. […] At same time, another aliquot of cells was allowed to grow again in the complete medium containing 0,1% DMSO for the same times and was used as control. After treatment, DNA cell content was evaluated by FACS analysis as previously described. Evaluation of apoptotic cells was performed by staining cell treated or not with 10 μM of the indicated compounds for 48 hs with Annexin5-V-Fitc and propidium iodide. All flow cytometry results were analyzed by FACSuite Software.

p21^waf1/cip1 [4] = assay: Western blotting of p21waf1/cip1 in RKO cells stably transfected with PPARG1; format: cell-based, human
Text: as §6, §7, §3

p21^waf1/cip1 [5] = assay: Western blotting of p21waf1/cip1 in HT-29 cells; format: cell-based, human; conditions: 10 µM, 48 hs
Method: as §8, §5, §3

HT-29 cells [6] = assay: Annexin V-FITC / propidium iodide apoptosis flow cytometry in HT-29 cells; format: cell-based, human; conditions: 10 µM, 48 hs
Method: as §2, §9

[7] = read-out: Proliferation IC50, HT-29 cells, concentration range 1 to 25 µM
[8] = Homo sapiens, HT-29, read-out: Proliferation IC50

Compound: O=C(O)C(CCCc1ccccc1)Oc1ccc(Cl)cc1 (racemic) [(R,S)-2]
Residual viability (HT-29 cells [1]; HT-29 cells): 70 ± 2.5%
IC50 (HT-29 cells [1]; [7]): 12.1 ± 1.2 µM
Efficacy (PPARγ1): 48 ± 2.1%
EC50 (PPARγ1): 0.54 ± 0.1 µM

Compound: O=C(O)C(CCCCc1ccccc1)Oc1ccc(Cl)cc1 (racemic) [(R,S)-4]
Residual viability (HT-29 cells [1]; HT-29 cells): 60 ± 0.5%
IC50 (HT-29 cells [1]; [7]): 10.1 ± 0.4 µM
Efficacy (PPARγ1): 60 ± 1.1%
EC50 (PPARγ1): 0.35 ± 0.07 µM

Compound: O=C(O)[C@@H](CCc1ccccc1)Oc1ccc(Cl)cc1 [(R)-1]
Residual viability (HT-29 cells [1]; HT-29 cells): 77 ± 3.1%
IC50 (HT-29 cells [1]; [7]): 19.7 ± 1.7 µM
Efficacy (PPARγ1): 45 ± 1.3%
EC50 (PPARγ1): 0.64 ± 0.06 µM

IC50 (HT-29 cells [1]; [8]): 4.8 ± 0.35 µM
Efficacy (PPARγ1): 55% and 55 ± 1.2%
EC50 (PPARγ1): 0.4 ± 0.05 µM
Compound: O=C(O)[C@H](CCCc1ccc(Cl)cc1)Oc1ccc(Cl)cc1 [(S)-3]
Luciferase activity remaining on co-treatment with LiCl (β-catenin/TCF pathway): about 60%
Caspase 3 activation (precursor reduced, cleaved form increased) (caspase 3): strongest effect
Residual viability (HT-29 cells [1]; HT-29 cells): 31 ± 1.3%
β-catenin protein level (β-catenin): reduction
c-Myc protein level (c-Myc): reduction
cyclin D1 protein level (cyclin D1): reduction more evident
p21waf1/cip1 expression (p21^waf1/cip1 [2]): no p21^waf1/cip1 variations
Cell cycle changes (HT-29 cells [3]): significant increase of cells in the sub G0/G1 phase
p21waf1/cip1 expression (p21^waf1/cip1 [4]; RKO clone expressing exogenous PPARγ1, 10 µM, 48 hs): induced accumulation
p21waf1/cip1 protein expression (p21^waf1/cip1 [5]): robust increase
Apoptosis induction (HT-29 cells [6]): stimulated apoptosis

Compound: O=C(Nc1ccccc1)c1cc([N+](=O)[O-])ccc1Cl [GW9662, reference compound]
Effect of the antagonist on compound-induced p21waf1/cip1 accumulation (p21^waf1/cip1 [4]; RKO clone expressing PPARγ1, co-treatment with (R,S)-3, (S)-3 or (R,S)-7): reverted the effect

Compound: CN(CCOc1ccc(CC2SC(=O)NC2=O)cc1)c1ccccn1 (centres unmarked) [RGZ, rosiglitazone, reference compound]
Luciferase activity remaining on co-treatment with LiCl (β-catenin/TCF pathway): 80%
IC50 (HT-29 cells [1]; [8]): 9.8 ± 0.4 µM
cyclin D1 protein level (cyclin D1): reduction
p21waf1/cip1 protein expression (p21^waf1/cip1 [5]): slight
Apoptosis induction (HT-29 cells [6]): stimulated apoptosis
